Measured values reported in ChEMBL document CHEMBL4190278, “Multipotent AChE and BACE-1 inhibitors for the treatment of Alzheimer's disease: Design, synthesis and bio-analysis of 7-amino-1,4-dihydro-2H-isoquilin-3-one derivates” (Eur J Med Chem, 2017).
Calls of active or inactive are those of the source. No cut-off for these calls is given here.

target: T1, Acetylcholinesterase (Homo sapiens, UniProt P22303); experiment: Potency index, ratio of donepezil IC50 to compound IC50 for human AChE
T1 sequence (P22303 whole entry): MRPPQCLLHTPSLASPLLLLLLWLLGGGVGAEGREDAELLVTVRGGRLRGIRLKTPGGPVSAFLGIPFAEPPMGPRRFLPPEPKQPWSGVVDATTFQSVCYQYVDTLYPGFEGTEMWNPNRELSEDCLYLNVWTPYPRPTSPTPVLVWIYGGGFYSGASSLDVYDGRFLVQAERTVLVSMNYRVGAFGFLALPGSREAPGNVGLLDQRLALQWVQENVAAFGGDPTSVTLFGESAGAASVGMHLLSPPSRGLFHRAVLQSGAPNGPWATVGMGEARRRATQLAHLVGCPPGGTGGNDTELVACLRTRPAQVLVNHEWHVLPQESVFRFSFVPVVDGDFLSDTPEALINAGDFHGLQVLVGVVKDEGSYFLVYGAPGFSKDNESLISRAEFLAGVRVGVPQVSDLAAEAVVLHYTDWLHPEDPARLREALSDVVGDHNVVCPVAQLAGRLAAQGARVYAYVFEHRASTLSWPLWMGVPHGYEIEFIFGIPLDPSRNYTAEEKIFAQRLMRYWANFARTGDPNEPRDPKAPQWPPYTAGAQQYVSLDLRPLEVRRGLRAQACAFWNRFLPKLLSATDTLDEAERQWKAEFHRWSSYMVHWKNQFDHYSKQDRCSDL

Structure (SMILES)	Ratio IC50
COc1ccccc1C(=O)N1Cc2cc(NC(=O)c3cccc(Cl)c3)ccc2CC1=O	315
COc1ccccc1C(=O)N1Cc2cc(NC(=O)c3ccccc3)ccc2CC1=O	181

target: T1, Acetylcholinesterase; experiment: Inhibition of human AChE using acetylthiocholine as substrate by Ellman's method

Structure (SMILES)	IC50 [nM]
Cc1cccc(C(=O)N2Cc3cc(NC(=O)c4ccccc4)ccc3CC2=O)c1	0.0262
O=C(Nc1ccc2c(c1)CN(C(=O)c1cccc(Cl)c1)C(=O)C2)c1ccccc1	0.0284
Cc1cccc(C(=O)Nc2ccc3c(c2)CN(C(=O)c2cccc(Cl)c2)C(=O)C3)c1	0.0209
Cc1cccc(C(=O)N2Cc3cc(NC(=O)c4cccc(Cl)c4)ccc3CC2=O)c1	0.0144
Cc1cccc(C(=O)Nc2ccc3c(c2)CNC(=O)C3)c1	791
COc1ccccc1C(=O)Nc1ccc2c(c1)CNC(=O)C2	926
O=C1Cc2ccc(NC(=O)c3cccc(Cl)c3)cc2CN1	914
O=C(Nc1ccc2c(c1)CN(C(=O)c1ccccc1)C(=O)C2)c1ccccc1	0.51
Cc1cccc(C(=O)Nc2ccc3c(c2)CN(C(=O)c2cccc(C)c2)C(=O)C3)c1	0.0135
COc1ccccc1C(=O)N1Cc2cc(NC(=O)c3ccccc3)ccc2CC1=O	0.0189
COc1ccccc1C(=O)Nc1ccc2c(c1)CN(C(=O)c1cccc(C)c1)C(=O)C2	0.0259
Nc1ccc2c(c1)CNC(=O)C2	1360
O=C1Cc2ccc(NC(=O)c3ccccc3)cc2CN1	1320
O=C(Nc1ccc2c(c1)CN(C(=O)c1cccc(Cl)c1)C(=O)C2)c1cccc(Cl)c1	0.0142
COc1ccccc1C(=O)Nc1ccc2c(c1)CN(C(=O)c1ccccc1OC)C(=O)C2	0.0216

test system: not listed separately; experiment: Metal chelating activity assessed as Cu2+-compound complex formation at 35 uM by UV-Visible spectrophotometric method

Structure (SMILES)	Activity
COc1ccccc1C(=O)N1Cc2cc(NC(=O)c3ccccc3)ccc2CC1=O	Active
